The text below walks through data of patent publication US9040542B2, “Solid forms of gyrase inhibitor (R)-1-ethyl-3-[6-fluoro-5-[2-(1-hydroxy-1-methyl-ethyl)pryimidin-5-yl]-7-(tetrahydrofuran-2-yl)-1H-benzimidazol-2-yl]urea” (priority 2011, dated 2015).

One data set concerns the target S. aureus DNA gyrase (Staphylococcus aureus, UniProt P0A0K8). Nature of the data set: DNA Gyrase ATPase Assay. The data set is classed as biochemical. As to conditions: 30° C., read-out: Ki, Inhibition of S. aureus DNA Gyrase. The procedure: The ATP hydrolysis activity of S. aureus DNA gyrase is measured by coupling the production of ADP through pyruvate kinase/lactate dehydrogenase to the oxidation of NADH. This method has been described previously (Tamura and Gellert, 1990, J. Biol. Chem., 265, 21342).
ATPase assays are carried out at 30° C. in buffered solutions containing 100 mM TRIS pH 7.6, 1.5 mM MgCl2, 150 mM KCl. The coupling system contains final concentrations of 2.5 mM phosphoenol pyruvate, 200 μM nicotinamide adenine dinucleotide (NADH), 1 mM DTT, 30 ug/ml pyruvate kinase, and 10 ug/ml lactate dehydrogenase. The enzyme (90 nM final concentration) and a DMSO solution (3% final concentration) of a compound is added. The reaction mixture is allowed to incubate for 10 minutes at 30° C. The reaction is initiated by the addition of ATP to a final concentration of 0.9 mM, and the rate of NADH disappearance is monitored at 340 nanometers over the course of 10 minutes. The Ki and IC50 values are determined from rate versus concentration profiles.

For a further data set, the target named is S. aureus TopoIV enzyme (Staphylococcus aureus, UniProt P0C1S7). In words: DNA Topo IV ATPase Assay. The data set is classed as biochemical. The following applies: 30° C., read-out: Ki, Inhibition of S. aureus DNA Topo IV. The method, then:
The conversion of ATP to ADP by S. aureus TopoIV enzyme is coupled to the conversion of NADH to NAD+, and the progress of the reaction is measured by the change in absorbance at 340 nm. TopoIV (64 nM) is incubated with the selected compound (3% DMSO final) in buffer for 10 minutes at 30° C. The buffer consists of 100 mM Tris 7.5, 1.5 mM MgCl2, 200 mM K•Glutamate, 2.5 mM phosphoenol pyruvate, 0.2 mM NADH, 1 mM DTT, 5 μg/mL linearized DNA, 50 μg/mL BSA, 30 μg/mL pyruvate kinase, and 10 μg/mL lactate dehyrodgenase (LDH). The reaction is initiated with ATP, and rates are monitored continuously for 20 minutes at 30° C. on a Molecular Devices SpectraMAX plate reader. The inhibition constant, Ki, and the IC50 are determined from plots of rate vs. concentration of selected compound fit to the Morrison Equation for tight binding inhibitors.

The nature of data set [1]: Stability data of solid forms on storage. The format is physicochemical.

In general, Ki refers to a measure of affinity in units of concentration, obtained from inhibition or displacement. Consider `CCNC(=O)Nc1nc2cc(-c3cnc(C(C)(C)O)nc3)c(F)c([C@H]3CCCO3)c2[nH]1` [Compound 23, 1-ethyl-3-[6-fluoro-5-[2-(1-hydroxy-1-methyl-ethyl)pyrimidin-5-yl]-7-[(2R)-tetrahydrofuran-2-yl]-1H-benzimidazol-2-yl]urea], for which the inhibition constant Ki on S. aureus DNA gyrase came to 9 nM; at S. aureus TopoIV enzyme, 12 nM. Also, in data set [1] (40° C. with relative humidity of up to 75%), the “stability of solid form” value is reported as “stable for at least one month”. The “chemical and physical stability” value in data set [1] (all storage conditions (25° C./60% RH, 40° C./ambient, and 40° C./75% RH), 1 month timepoint) was “chemically and physically stable”.
